Data taken from the NIST ThermoML archive (doi:10.1016/j.tca.2012.10.004).

Test: refractive index (Na D-line) (dimensionless); xn = mol fraction of the nth substance listed
Conditions: 101 kPa, Liquid, Standard Abbe refractometry

CN(CCO)CCO [N-methyldiethanolamine] + O=S1(=O)CCCC1
refractive index
Conditions	x1 = 0.1001	x1 = 0.2012	x1 = 0.2999	x1 = 0.4003	x1 = 0.5005	x1 = 0.6	x1 = 0.7002	x1 = 0.8011	x1 = 0.8998	x1 = 1
293.15 K	1.48265	1.48037	1.47845	1.4766	1.47489	1.47343	1.47207	1.47093	1.47017	1.46935
298.15 K	1.48095	1.47872	1.47672	1.47488	1.47316	1.47164	1.47023	1.469	1.46802	1.46724
303.15 K	1.47886	1.4767	1.47473	1.47288	1.47124	1.46976	1.46844	1.46717	1.46615	1.46532
308.15 K	1.47712	1.47488	1.47281	1.47099	1.46931	1.46777	1.46639	1.46513	1.46413	1.4631
313.15 K	1.47549	1.47327	1.47109	1.46919	1.46741	1.46584	1.46442	1.46301	1.46184	1.46074
318.15 K	1.47376	1.47154	1.46941	1.46751	1.46573	1.46414	1.46267	1.46127	1.46005	1.45892
323.15 K	1.47203	1.46976	1.46769	1.46581	1.46403	1.46242	1.46091	1.45949	1.45821	1.45708
328.15 K	1.47021	1.46788	1.46596	1.46404	1.46226	1.46061	1.45905	1.45761	1.45636	1.45513
